Assays:
[1] = target: T1, human EHMT1 982-1266 (Homo sapiens, UniProt Q9H9B1); assay: EHMT1 enzyme assay on histone peptide substrate (3H-SAM SPA); conditions: EHMT1 IC50, recombinant human EHMT1 982-1266, histone peptide substrate
T1 sequence (Q9H9B1 982-1266): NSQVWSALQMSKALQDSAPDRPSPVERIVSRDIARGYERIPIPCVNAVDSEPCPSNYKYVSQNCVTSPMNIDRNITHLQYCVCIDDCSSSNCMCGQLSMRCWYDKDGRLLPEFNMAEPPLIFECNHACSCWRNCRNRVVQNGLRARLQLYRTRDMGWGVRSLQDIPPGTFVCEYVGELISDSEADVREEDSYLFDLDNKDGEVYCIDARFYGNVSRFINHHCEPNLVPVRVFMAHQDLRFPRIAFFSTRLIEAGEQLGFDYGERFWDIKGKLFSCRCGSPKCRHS

[2] = target: T2, human EHMT2 913-1193 (Homo sapiens, UniProt Q96KQ7); assay: EHMT2 enzyme assay on histone peptide substrate (3H-SAM SPA); conditions: EHMT2 IC50, recombinant human EHMT2 913-1193, histone peptide substrate
T2 sequence (Q96KQ7 913-1193): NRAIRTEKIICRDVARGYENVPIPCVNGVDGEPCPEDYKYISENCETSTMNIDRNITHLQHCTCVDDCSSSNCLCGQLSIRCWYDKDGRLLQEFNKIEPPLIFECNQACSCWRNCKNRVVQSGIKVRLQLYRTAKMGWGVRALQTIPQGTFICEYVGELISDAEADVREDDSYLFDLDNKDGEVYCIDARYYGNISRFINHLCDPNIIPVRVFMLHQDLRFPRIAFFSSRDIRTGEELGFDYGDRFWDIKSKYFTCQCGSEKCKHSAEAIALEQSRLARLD

[3] = system: H3K9me2 in HCT116 cells; assay: HCT116 H3K9me2 in-cell western assay; assay type: cell-based; conditions: Homo sapiens, HCT-116, 72 h, HCT116 cells, 72 hours incubation; read-out: H3K9me2 ICW IC50
Source text: HCT116 cell line was purchased from ATCC (Manassas, VA, USA). […] Penicillin-Streptomycin and heat inactivated fetal bovine serum were purchased from Hyclone (Logan, UT, USA). DPBS, Corning^R were purchased from VWR (Radnor, PA, USA). Triton′ X-100 was purchased from Sigma (St. Louis, MO, USA). Intercept blocking buffer, DRAQ5, Licor Odyssey Infrared Scanner were purchased from Licor Biosciences (Lincoln, NB, USA). Plate washer was purchased from BioTek (Winooski, VT, USA). […] 16% Paraformaldehyde was purchased from Electron Microscopy Sciences (Hatfield, PA, USA). HCT116 cells were maintained in complete growth medium (RPMI supplemented with 10% heat inactivated fetal bovine serum, 1% Penicillin-Streptomycin) and cultured at 37° C. under 5% CO2. N^2-(4-methoxy-3-(3-(pyrrolidin-1-yl)propoxy)phenyl)-N^4,6-dimethyl]pyrimidine-2,4-diamine (synthesis disclosed in International Application WO2017181177A1) was used as a control compound.
HCT116 cells (ATCC) were trypsinized, counted and seeded in assay medium (RPMI supplemented with 10% heat inactivated fetal bovine serum, 1% Penicillin-Streptomycin) at a concentration of 2,000 cells per well to a 384-well cell culture plate with compounds in 50 μl per well. Plates were incubated with at 37° C. under 5% CO2 for 72 hours. After the incubation, 50 μl per well of 8% paraformaldehyde in PBS was added to the plates and incubated at room temperature for 20 minutes. Plates were transferred to a BioTek (EL406) plate washer and washed 5 times with 110 μl per well of wash buffer (1×PBS containing 0.1% Triton X-100). The plates were next blocked with 50 μl of Intercept blocking buffer for 1 hour at room temperature. Blocking buffer was removed and 30 μl per well of monoclonal primary antibody of H3K9me2 (CST) diluted 1:200 in Intercept blocking buffer were added and plates were incubated overnight at 4° C. The plates were then washed 5 times with 110 μl per well of wash buffer (1×PBS containing 0.1% Triton X-100). Next 30 μl per well of secondary was added (1:400 800 CW goat anti-rabbit IgG in blocking buffer) with 1:1000 DRAQ5 in blocking buffer and incubated for 2 hours at room temperature. The plates were washed 5 times with 110 μl per well of wash buffer (1×PBS containing 0.1% Triton X-100) then with 100 μl per well of water once. Plates were allowed to dry at room temperature then imaged on a Licor Odyssey Infrared Scanner which measured integrated intensity at 700 nm and 800 nm wavelength. Both 700 and 800 channels were scanned.
The average of the ratio values (800 nm/700 nm) for each well was calculated and used to determine the percentage for each test well in the plate. Compounds were serially diluted two-fold in 0.1% DMSO for a total of 10 test concentrations beginning at 10 μM. IC50 curves were generated using duplicate wells per concentration of compound. […] IC50 values were calculated using a non-linear regression of Prism.

| SMILES | IC50 [1] | IC50 [2] | IC50 [3] |
| --- | --- | --- | --- |
| CNc1cc(C)nc(Nc2cc3c(c([C@H]4CC[C@H](N)CC4)c2)OCC3)n1 [Compound 153, N2-[7-(4-aminocyclohexyl)-2,3-dihydrobenzofuran-5-yl]-N4,6-dimethyl-pyrimidine-2,4-diamine] | > 2000 nM | > 2000 nM | > 2000 nM |
| CNc1cc(C)nc(Nc2cc(OCCCN3CCCC3)c3c(c2)OC(F)(F)O3)n1 [Compound 154, N2-[2,2-difluoro-7-(3-pyrrolidin-1-ylpropoxy)-1,3-benzodioxol-5-yl]-N4,6-dimethyl-pyrimidine-2,4-diamine] | < 100 nM | 500 to 2000 nM | 100 to 500 nM |
| CNc1cc(C)nc(Nc2cc3c(c(C4=CCNCC4)c2)OCC3)n1 [Compound 155, N4,6-dimethyl-N2-[7-(1,2,3,6-tetrahydropyridin-4-yl)-2,3-dihydrobenzofuran-5-yl]pyrimidine-2,4-diamine] | 100 to 500 nM | 500 to 2000 nM | 100 to 500 nM |
| CNc1cc(C)nc(Nc2cc3c(c(C4=CCN(C)CCC4)c2)OC(F)(F)O3)n1 [Compound 156, N2-[2,2-difluoro-7-(1-methyl-2,3,4,7-tetrahydroazepin-5-yl)-1,3-benzodioxol-5-yl]-N4,6-dimethyl-pyrimidine-2,4-diamine] | < 100 nM | 100 to 500 nM | 100 to 500 nM |
| CNc1cc(C)nc(Nc2cc3c(c(C4=CCN(CCOC)CCC4)c2)OC(F)(F)O3)n1 [Compound 158, N2-[2,2-difluoro-7-[1-(2-methoxyethyl)-2,3,4,7-tetrahydroazepin-5-yl]-1,3-benzodioxol-5-yl]-N4,6-dimethyl-pyrimidine-2,4-diamine] | > 2000 nM | > 2000 nM | > 2000 nM |
| CNc1cc(C)nc(Nc2cc3c(c(C4=CCN(C)CCC4)c2Cl)OCCO3)n1 [Compound 165, N2-[6-chloro-5-(1-methyl-2,3,4,7-tetrahydroazepin-5-yl)-2,3-dihydro-1,4-benzodioxin-7-yl]-N4,6-dimethyl-pyrimidine-2,4-diamine] | < 100 nM | < 100 nM | < 100 nM |
| CNc1cc(C)nc(Nc2cc3c(c(C4=CCN(C)CCC4)c2F)OCC32CC2)n1 [Compound 171] | < 100 nM | 100 to 500 nM | < 100 nM |
| CNc1cc(C)nc(Nc2cc3c(c(C4=CCN(C)CCC4)c2F)OCCC3(F)F)n1 [Compound 173] | < 100 nM | 100 to 500 nM | < 100 nM |
| CNc1cc(C)nc(Nc2cc3c(c(C4=CCNCCC4)c2F)OCCC3(F)F)n1 [Compound 174] | < 100 nM | < 100 nM | < 100 nM |
| CNc1cc(C)nc(Nc2cc3c(c(C4=CCNCCC4)c2F)OCC3(C)C)n1 [Compound 178] | < 100 nM | 100 to 500 nM | < 100 nM |
| CNc1cc(C)nc(Nc2cc3c(c(C4=CCN(C)CCC4)c2F)OCC3C)n1 (stereo not drawn) [Compound 181] | < 100 nM | 100 to 500 nM | 100 to 500 nM |
| CNc1cc(C)nc(Nc2cc3c(c(C4=C[C@@H](C)NCCC4)c2F)OCC3)n1 [Compound 182] | < 100 nM | 100 to 500 nM | < 100 nM |
| CNc1cc(C)nc(Nc2cc3c(c(C4=C[C@H](C)NCCC4)c2F)OCC3)n1 [Compound 185] | < 100 nM | 100 to 500 nM | < 100 nM |
| CNc1cc(C)nc(Nc2c(F)c3c(c(C4=CCN(C)CCC4)c2F)OCC3)n1 [Compound 186] | 100 to 500 nM | 500 to 2000 nM | 100 to 500 nM |
| CNc1cc(C)nc(Nc2cc3c(c(C4=CCNCCC4)c2OC)OCC3)n1 [Compound 192] | 100 to 500 nM | 500 to 2000 nM | 100 to 500 nM |
| CNc1nc(Nc2cc3c(c(C4=CCNCCC4)c2F)OCC3)nc(C)c1OC [Compound 194] | < 100 nM | 100 to 500 nM | < 100 nM |
| CNc1cc(C)nc(Nc2cc3c(c(C4=CCN(C(C)C)CCC4)c2F)OCC3)n1 [Compound 195] | < 100 nM | 100 to 500 nM | < 100 nM |
